Earlier results as cited in paper PMC8313041 (Heterocyclic communications, 2015).

Columns and labels:
[1] = test system: human leukemic T-cell lines

Nc1ncnc2c1ncn2[C@@H]1O[C@H](CO)[C@@H](F)[C@@H]1F [Compound 2, 9-(2′,3′-dideoxy-2′,3′-difluoro-β-D-arabinofuranosyl)adenine]
in vitro potency against HIV-1 compared with lodenosine (HIV-1): more potent in vitro against HIV-1 than lodenosine 1

Nc1nc2c(ncn2[C@@H]2O[C@H](CO)[C@@H](O)[C@@H]2F)c(=O)[nH]1 [Compound 3, 9-(2′-deoxy-2′-fluoro-β-D-arabinofuranosyl)guanine]
activity against human leukemic T-cell lines [1]: displays activity against human leukemic T-cell lines

Nc1ncnc2c1ncn2[C@@H]1O[C@H](CO)C[C@@H]1F [lodenosine, 2′-β-fluoro-2′,3′-dideoxyadenosine]
in vitro activity against HIV-1 (HIV-1): displays in vitro activity against HIV-1
